The values below come from publication PMC3495162 (Journal of medicinal chemistry, 2012).

Some results are limits rather than exact numbers.

Experiment [1] deals with Mcl-1 (Homo sapiens, UniProt Q07820). Briefly: Fluorescence polarization competitive binding assay, Mcl-1. The following applies: at concentrations as high as 5 μM. (Polarisation of emitted light reports the rotation of a fluorescent probe.)
Experiment [2] addresses Bcl-2 (Homo sapiens, UniProt P10415). The following applies: read-out: Bcl-2 Ki; cited from earlier work.
In experiment [3] the target is Bcl-xL (Homo sapiens, UniProt Q07817). The following applies: read-out: Bcl-xL Ki; cited from earlier work.
Chain of Bcl-xL (Q07817 whole entry): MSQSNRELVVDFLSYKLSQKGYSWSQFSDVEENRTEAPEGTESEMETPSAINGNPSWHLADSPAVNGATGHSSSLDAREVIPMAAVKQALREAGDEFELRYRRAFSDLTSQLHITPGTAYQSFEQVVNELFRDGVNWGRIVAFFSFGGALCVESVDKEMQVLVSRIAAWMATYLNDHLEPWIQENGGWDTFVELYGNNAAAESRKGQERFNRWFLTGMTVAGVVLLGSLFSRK
Experiment [4] has as its system H146 xenograft tumor model. The following applies: well-tolerated dose-schedule, mice; cited from earlier work.

Chain of Bcl-2 (P10415 whole entry): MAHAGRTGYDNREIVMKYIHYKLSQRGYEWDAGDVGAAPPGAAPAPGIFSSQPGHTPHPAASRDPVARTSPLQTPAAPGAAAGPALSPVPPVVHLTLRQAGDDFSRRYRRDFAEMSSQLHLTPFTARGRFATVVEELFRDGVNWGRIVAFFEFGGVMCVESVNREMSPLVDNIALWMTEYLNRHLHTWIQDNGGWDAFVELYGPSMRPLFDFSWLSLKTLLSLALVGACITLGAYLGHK
Chain of Mcl-1 (Q07820 whole entry): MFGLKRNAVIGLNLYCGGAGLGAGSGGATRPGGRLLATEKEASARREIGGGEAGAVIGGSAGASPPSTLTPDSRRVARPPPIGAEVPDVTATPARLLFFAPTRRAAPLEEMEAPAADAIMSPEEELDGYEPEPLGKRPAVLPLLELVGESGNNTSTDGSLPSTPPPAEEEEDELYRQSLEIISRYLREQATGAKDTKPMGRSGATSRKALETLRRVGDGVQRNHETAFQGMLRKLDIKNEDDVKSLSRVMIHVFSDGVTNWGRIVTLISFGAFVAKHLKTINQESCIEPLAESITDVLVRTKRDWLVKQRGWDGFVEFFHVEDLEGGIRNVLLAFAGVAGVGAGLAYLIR

Broadly, the Ki is a measure of affinity in units of concentration, obtained from inhibition or displacement. For `CCn1c(C)c(C(=O)O)c(-c2cccc(N3CCN(c4ccc(NS(=O)(=O)c5ccc(N[C@H](CCN(C)C)CSc6ccccc6)c([N+](=O)[O-])c5)cc4)CC3)c2)c1-c1ccc(Cl)cc1` [Compound 3], the “Binding to Mcl-1” value in experiment [1] is “no appreciable binding”. For the same compound, the Ki in experiment [2] and in experiment [3] was < 1 nM in each case. For the same compound, the “Antitumor activity in H146 xenograft model” value in experiment [4] was “fails to achieve durable tumor regression”.
